Activity calls are given as the source filed them. No rule for the calls is given here.
System: rodent carcinogenicity bioassays, tumor incidence
Experiment: CCRIS carcinogenicity studies
In short: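 NCI-built, expert-reviewed records of carcinogenicity and related test outcomes (mutagenicity, tumor promotion/inhibition) compiled from published and report sources, historical span 1985-2011, not updated.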

Structure (SMILES): CC/C(=C(/CC)c1ccc(O)cc1)c1ccc(O)cc1
- carcinogen call (Species: HAMSTER, Route: PRE-NATAL EXPOSURE, Tumor Site: Type of Lesion: UTERUS, ACCESSORY SEX ORGANS (M), VAGINA, CERVIX, Tumor Site: Type of Lesion: UTERUS, ACCESSORY SEX ORGANS (M), VAGINA, CERVIX): active; positive
- carcinogen call (Species: HAMSTER, Route: SUBCUTANEOUS IMPLANT, Tumor Site: Type of Lesion: KIDNEY): active; positive
- carcinogen call (Species: HAMSTER, Route: SUBCUTANEOUS, Tumor Site: Type of Lesion: KIDNEY): active; positive
- carcinogen call (Species: HAMSTER, Strain/Sex: SYRIAN/MALE, Route: SUBCUTANEOUS IMPLANT, Dose: 0, 20 MG IN PELLETS IMPLANTED EVERY 2.5 MO FOR 9 MO (STUDY DURATION: 9 MO), Tumor Site: Type of Lesion: KIDNEY: TUMOR): active; positive
- carcinogen call (Species: HUMAN, Route: DERMAL, Tumor Site: Type of Lesion: CERVIX OR VAGINA): active; positive
- carcinogen call (Species: MONKEY, Route: SUBCUTANEOUS, Tumor Site: Type of Lesion: UTERUS): active; positive
- carcinogen call (Species: MOUSE, Route: NEO-NATAL EXPOSURE, Tumor Site: Type of Lesion: CERVIX, VAGINA): active; positive
- carcinogen call (Species: MOUSE, Route: ORAL, Tumor Site: Type of Lesion: MAMMARY GLAND, CERVIX, VAGINA, Tumor Site: Type of Lesion: MAMMARY GLAND, CERVIX, VAGINA): active; positive
- carcinogen call (Species: MOUSE, Route: PRE-NATAL EXPOSURE, Tumor Site: Type of Lesion: CERVIX, VAGINA, OVARIES, Tumor Site: Type of Lesion: CERVIX, VAGINA, OVARIES): active; positive
- carcinogen call (Species: MOUSE, Route: SUBCUTANEOUS IMPLANT, Tumor Site: Type of Lesion: TESTES, MAMMARY GLAND, LYMPHATIC SYSTEM, Tumor Site: Type of Lesion: TESTES, MAMMARY GLAND, LYMPHATIC SYSTEM): active; positive
- carcinogen call (Species: MOUSE, Route: SUBCUTANEOUS, Tumor Site: Type of Lesion: MAMMARY GLAND, GENITAL TRACT, OVARIES, Tumor Site: Type of Lesion: MAMMARY GLAND, GENITAL TRACT, OVARIES): active; positive
- carcinogen call (Species: MOUSE, Strain/Sex: C3H/FEMALE, Route: ORAL, Dose: 0, 2.5, 5, 10, 20, 40, 80, 160, 320, 640 PPB IN DIET (STUDY DURATION: 455 D), Dose: 0, 2.5, 5, 10, 20, 40, 80, 160, 320, 640 PPB IN DIET (STUDY DURATION: 455 D), Tumor Site: Type of Lesion: MAMMARY GLAND: ADENOCARCINOMA): active; positive
- carcinogen call (Species: MOUSE, Strain/Sex: C57BL/6/MALE,FEMALE (WILD TYPE), Route: DIET, Dose: 0, 1500 PPB IN DIET FOR 39 WKS (STUDY DURATION: 39 WKS)): inactive; negative
- carcinogen call (Species: MOUSE, Strain/Sex: C57BL/6/XPA/P53/MALE,FEMALE (TRANSGENIC), Route: DIET, Dose: 0, 1500 PPB IN DIET FOR 39 WKS (STUDY DURATION: 39 WKS), Tumor Site: Type of Lesion: BONE: OSTEOSARCOMA (MALES ONLY), TESTICULAR INTERSTITIAL CELL ADENOMA (BENIGN), MALES): active; positive in males only
- carcinogen call (Species: MOUSE, Strain/Sex: C57BL/6XPA/MALE,FEMALE (TRANSGENIC), Route: DIET, Dose: 0, 100, 300, 1500 PPB IN DIET FOR 39 WKS (STUDY DURATION: 39 WKS), Dose: 0, 100, 300, 1500 PPB IN DIET FOR 39 WKS (STUDY DURATION: 39 WKS), Tumor Site: Type of Lesion: PITUITARY: ADENOMA (BENIGN)): significant in males at 1500 ppb only
- carcinogen call (Species: MOUSE, Strain/Sex: CD-1/FEMALE, Route: INTRAPERITONEAL, Dose: 0, 1 UG/G BW ADMINISTERED TO PREGNANT MICE AT 16 D AND 16 HR, 17 D, OR 17 D 16 HR POST CONCEPTION OR 2 UG/G BW AT 17 D 1, Tumor Site: Type of Lesion: PITUITARY GLAND: TUMOR): active; positive
- carcinogen call (Species: RAT, Route: NEO-NATAL EXPOSURE, Tumor Site: Type of Lesion: ACCESSORY SEX ORGANS (M)): active; positive
- carcinogen call (Species: RAT, Route: ORAL, Tumor Site: Type of Lesion: MAMMARY GLAND, PITUITARY GLAND): active; positive
- carcinogen call (Species: RAT, Route: SUBCUTANEOUS IMPLANT, Tumor Site: Type of Lesion: MAMMARY GLAND, URINARY BLADDER): active; positive
- carcinogen call (Species: RAT, Route: SUBCUTANEOUS, Tumor Site: Type of Lesion: MAMMARY GLAND, PITUITARY GLAND): active; positive
- carcinogen call (Species: RAT, Strain/Sex: ACI/FEMALE, Route: SUBCUTANEOUS IMPLANT, Dose: 0, 1.25 MG/100 G ONCE IN A 20 MG PELLET AT AGES 75, 127 AND 177 D (STUDY DURATION: 347-365 D), Tumor Site: Type of Lesion: MAMMARY GLAND: ADENOCARCINOMA): active; positive
- carcinogen call (Species: RAT, Strain/Sex: WISTAR/FEMALE, Route: SUBCUTANEOUS, Dose: 0, 0.1, 0.5 MG/KG TO MOTHERS ON D 18, 19 AND 20 OF GESTATION (STUDY DURATION: 2 YR), Dose: 0, 0.1, 0.5 MG/KG TO MOTHERS ON D 18, 19 AND 20 OF GESTATION (STUDY DURATION: 2 YR), Tumor Site: Type of Lesion: VAGINA: TUMOR): active; positive
- carcinogen call (Species: RAT, Strain/Sex: WISTAR/FEMALE, Route: SUBCUTANEOUS, Dose: 0, 25, 50 MG/KG TO MOTHERS ON D 19 AND 20 OF GESTATION (STUDY DURATION: 2 YR), Dose: 0, 25, 50 MG/KG TO MOTHERS ON D 19 AND 20 OF GESTATION (STUDY DURATION: 2 YR), Tumor Site: Type of Lesion: VAGINA: TUMOR): active; positive

Structure (SMILES): O=P(O)(OCC(Br)CBr)OCC(Br)CBr (centres undefined)
- carcinogen call (Species: RAT, Strain/Sex: WISTAR/FEMALE, Route: ORAL, Dose: 0, 80, 400, 2000 IN DIET FOR 24 MO (STUDY DURATION: 24 MO), Dose: 0, 80, 400, 2000 IN DIET FOR 24 MO (STUDY DURATION: 24 MO), Tumor Site: Type of Lesion: LIVER: HEPATOCELLULAR CARCINOMA, SMALL INTESTINE: ADENOCARCINOMA, FORESTOMACH: PAPILLOMA, ESOPHAGUS: PAPILLOMA, Tumor Site: Type of Lesion: LIVER: HEPATOCELLULAR CARCINOMA, SMALL INTESTINE: ADENOCARCINOMA, FORESTOMACH: PAPILLOMA, ESOPHAGUS: PAPILLOMA): active; positive
- carcinogen call (Species: RAT, Strain/Sex: WISTAR/MALE, Route: ORAL, Dose: 0, 80, 400, 2000 IN DIET FOR 24 MO (STUDY DURATION: 24 MO), Dose: 0, 80, 400, 2000 IN DIET FOR 24 MO (STUDY DURATION: 24 MO), Tumor Site: Type of Lesion: SMALL INTESTINE: ADENOCARCINOMA, FORESTOMACH: PAPILLOMA, ESOPHAGUS: PAPILLOMA, Tumor Site: Type of Lesion: SMALL INTESTINE: ADENOCARCINOMA, FORESTOMACH: PAPILLOMA, ESOPHAGUS: PAPILLOMA): active; positive

Structure (SMILES): N[C@@H](CC(=O)O)C(=O)O
- carcinogen call (Species: RAT, Strain/Sex: F344/FEMALE, Route: ORAL, Dose: 0, 2.5, 5% IN DRINKING WATER FOR 100 WK (STUDY DURATION: 100 WK), Dose: 0, 2.5, 5% IN DRINKING WATER FOR 100 WK (STUDY DURATION: 100 WK)): inactive; negative
- carcinogen call (Species: RAT, Strain/Sex: F344/MALE, Route: ORAL, Dose: 0, 2.5, 5% IN DRINKING WATER FOR 100 WK (STUDY DURATION: 100 WK), Dose: 0, 2.5, 5% IN DRINKING WATER FOR 100 WK (STUDY DURATION: 100 WK)): inactive; negative

Structure (SMILES): C=CCCl
- carcinogen call (Species: MOUSE, Strain/Sex: B6C3F1/FEMALE, Route: GAVAGE, Dose: 0, 129, 258 MG/KG IN CORN OIL 5 D/WK FOR 78 (STUDY DURATION: 92 WK), Dose: 0, 129, 258 MG/KG IN CORN OIL 5 D/WK FOR 78 (STUDY DURATION: 92 WK), Tumor Site: Type of Lesion: FORESTOMACH: SQUAMOUS CELL CARCINOMA OR PAPILLOMA): equivocal
- carcinogen call (Species: MOUSE, Strain/Sex: B6C3F1/MALE, Route: GAVAGE, Dose: 0, 172, 199 MG/KG IN CORN OIL 5 D/WK FOR 78 (STUDY DURATION: 92 WK), Dose: 0, 172, 199 MG/KG IN CORN OIL 5 D/WK FOR 78 (STUDY DURATION: 92 WK), Tumor Site: Type of Lesion: FORESTOMACH: SQUAMOUS CELL CARCINOMA): equivocal
- carcinogen call (Species: RAT, Strain/Sex: OSBORNE-MENDEL/FEMALE, Route: GAVAGE, Dose: 0, 55, 73 MG/KG N CORN OIL 5 D/WK FOR 78 (STUDY DURATION: 108-111 WK), Dose: 0, 55, 73 MG/KG N CORN OIL 5 D/WK FOR 78 (STUDY DURATION: 108-111 WK)): inactive; negative
- carcinogen call (Species: RAT, Strain/Sex: OSBORNE-MENDEL/MALE, Route: GAVAGE, Dose: 0, 57, 77 MG/KG IN CORN OIL 5 D/WK FOR 78 (STUDY DURATION: 108-111 WK), Dose: 0, 57, 77 MG/KG IN CORN OIL 5 D/WK FOR 78 (STUDY DURATION: 108-111 WK)): inactive; negative

Structure (SMILES): CC(C)N(C(=O)SC/C(Cl)=C/Cl)C(C)C
- carcinogen call (Species: MOUSE, Strain/Sex: B6AKF1/MALE, Route: GAVAGE/ORAL, Dose: 215 MG/KG IN GELATIN FROM D 7-28 OF LIFE THEN 560 PPM IN DIET, Tumor Site: Type of Lesion: LIVER: HEPATOMA): active; positive
- carcinogen call (Species: MOUSE, Strain/Sex: B6C3F1/MALE,FEMALE, Route: GAVAGE/ORAL, Dose: 215 MG/KG IN GELATIN FROM D 7-28 OF LIFE THEN 560 PPM IN DIET, Tumor Site: Type of Lesion: LIVER: HEPATOMA): active; positive
- carcinogen call (Species: RAT, Strain/Sex: STRAIN-CD/MALE,FEMALE, Route: ORAL, Dose: 150, 300 PPM IN DIET FOR 78 WK): inactive; negative

Reference: PubChem BioAssay AID1259411 (Chemical Carcinogenesis Research Information System (CCRIS), 2018)
